Numbering of substitutions follows the chain as printed. Where two headings read alike, the source gives them in different places.
How the values were obtained:
rat M1 D105A receptor = target: T1, rat M1 D105A receptor (Rattus norvegicus, UniProt P08482, D105A); assay: R-SAT functional assay, D105A mutant; assay type: cell-based; details: Table 3, maximum response
T1 construct: expressed in transfected cells; host or cells: NIH-3T3
T1 sequence (P08482 1-460 D105A): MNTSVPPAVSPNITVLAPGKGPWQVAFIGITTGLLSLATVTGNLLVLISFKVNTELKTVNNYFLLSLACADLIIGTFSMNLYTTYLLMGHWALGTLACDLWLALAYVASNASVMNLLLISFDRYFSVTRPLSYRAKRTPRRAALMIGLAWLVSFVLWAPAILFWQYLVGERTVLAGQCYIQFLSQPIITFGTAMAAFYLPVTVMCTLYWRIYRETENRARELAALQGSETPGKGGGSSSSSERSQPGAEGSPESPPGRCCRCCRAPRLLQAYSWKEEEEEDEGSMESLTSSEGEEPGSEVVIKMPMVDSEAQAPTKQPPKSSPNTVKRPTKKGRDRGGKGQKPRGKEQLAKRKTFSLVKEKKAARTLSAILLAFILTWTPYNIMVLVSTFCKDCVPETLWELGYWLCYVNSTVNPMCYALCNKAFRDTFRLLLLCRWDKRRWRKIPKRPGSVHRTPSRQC
Protocol: (§1) Cells are co-transfected for 18 h with DMEM containing 0.08 micrograms/ml of an expression vector for the expression of the mutant receptor and 0.3 micrograms/ml pSI-Bgal (Promega, Madison Wis.), and 0.5% v/v Polyfect (Qiagen, Valencia Calif.), as recommended by the manufacturer. On day three, the medium is replaced with DMEM containing 1% PSG, 0.5% calf serum, 2% cyto-sf3 (Kemp Biotechnologies, Frederick, Md.), and varying concentrations of the compounds to be tested. Cells are grown in a humidified atmosphere with 5% ambient CO2 for 5 days. The media is removed from the plates, and beta-galactosidase activity is measured by the addition of o-nitrophenyl -d-galactopyranoside in phosphate-buffered saline with 5% Nonidet P-40. […] The following equation is fitted to the data using GraphPad Prism software (San Diego, Calif.):
(§2) NIH-3T3 cells were grown in 96-well tissue culture plates to 70 to 80% confluence in Dulbecco's modified essential media (DMEM) supplemented with 100 units/ml penicillin, 100 micrograms/ml streptomycin, 0.3 mg/ml L-glutamine (1% PSG, GIBCO) and 10% calf serum (Sigma-Aldrich). Cells were transfected for 18 h with DMEM containing 0.08 micrograms/ml receptor DNA and 0.3 micrograms/ml pSI-Bgal (Promega, Madison Wis.), 0.5% v/v Polyfect (Qiagen, Valencia Calif.). Medium was replaced with DMEM containing 1% PSG, 0.5% calf serum, 2% cyto-sf3 (Kemp Biotechnologies, Frederick, Md.), and varying concentrations of ligand. […] Cells were grown in a humidified atmosphere with 5% ambient CO2 for 5 days. Medium was removed from the plates, and beta-galactosidase activity was measured by the addition of o-nitrophenyl -d-galactopyranoside in phosphate-buffered saline with 5% Nonidet P-40.

rat M1 Y381A receptor = target: T2, rat M1 Y381A receptor (Rattus norvegicus, UniProt P08482, Y381A); assay: R-SAT functional assay, Y381A mutant; assay type: cell-based; details: M1 Y381A; for EC50: read-out: pEC50 (converted)
T2 construct: expressed in transfected cells; host or cells: NIH-3T3
T2 sequence (P08482 1-460 Y381A): T1 sequence (P08482 1-460 D105A) with A105D, Y381A
Protocol: as §1, §2
Receptor Selection and Amplification (R-SAT™) Assays: R-SAT™ functional assays were carried out as follows. NIH-3T3 cells were grown in 96-well tissue culture plates to 70 to 80% confluence in Dulbecco's modified essential media (DMEM) supplemented with 100 units/ml penicillin, 100 micrograms/ml streptomycin, 0.3 mg/ml L-glutamine (1% PSG, GIBCO) and 10% calf serum (Sigma-Aldrich). Cells were transfected for 18 h with DMEM containing 0.08 micrograms/ml receptor DNA and 0.3 micrograms/ml pSI-Bgal (Promega, Madison Wis.), 0.5% v/v Polyfect (Qiagen, Valencia Calif.). The transfected cells were frozen away. Cells were thawed and added to 96 well plates with DMEM containing 1% PSG, 0.5% calf serum, 2% cyto-sf3 (Kemp Biotechnologies, Frederick, Md.), and varying concentrations of ligand.
In an effort to further characterize monoamine modulators, we used a panel of mutant muscarininc M1 receptors to analyze the activity and potency of orthosteric modulators and various allosteric modulators at those receptors.

[1] = Table 4, maximum response relative to xanomeline
[2] = Table 10, maximum response relative to AC-42

SMILES | Eff (%) (rat M1 D105A receptor) | % Eff (rat M1 Y381A receptor; [1]) [%] | EC50 (rat M1 Y381A receptor; Table 4) [nM] | EC50 (rat M1 Y381A receptor; Table 10, NA = non-active) [nM] | % Eff (rat M1 Y381A receptor; [2]) [%]
CCCCC1CCN(CCCC(=O)c2ccccc2C)CC1 [AC-42, 4-n-butyl-1-[4-(2-methylphenyl)-4-oxo-1-butyl] piperidine hydrogen chloride] | no resp. | 46 | 316 | 3160 | 102
CCCCC1CCN(CCCN2C(=O)COc3cc(F)ccc32)CC1 [AC-260584, 4-[3-(4-Butyl-piperidin-1-yl)-propyl]-7-fluoro-4H-benzo [1,4]oxazin-3-one] | no resp. | 60 | 79.4 | 63.1 | 168
Clc1ccc2c(c1)N=C(N1CCNCC1)c1ccccc1N2 [NDMC, 8-chloro-11-(1-piperazinyl)-5H-dibenzo [b,e] [1,4] diazepine] | no resp. | 95 | 158 | 158 | 330
